Laboratory results: ChEMBL document CHEMBL1201862, “PubChem BioAssay data set” (2004)
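Method: 48-hour compound exposure of cells in 96-well plates, five concentrations, linear interpolation of endpoints. At the GI50, growth is halved.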 The source made the active and inactive calls. Rule as the data show it: active = GI50 up to about 1.1 µM and inactive = higher.

Assays:
Assay in all cases: NCI anticancer screen, dose series, 48 h
ACHN = tested on: ACHN
COLO 205 = tested on: COLO 205
HCC 2998 = tested on: HCC 2998
HCT-15 = tested on: HCT-15
K562 = tested on: K562
M14 = tested on: M14
NCI-H23 = tested on: NCI-H23
OVCAR-5 = tested on: OVCAR-5
RPMI-8226 = tested on: RPMI-8226
SF-539 = tested on: SF-539
SK-MEL-5 = tested on: SK-MEL-5
SNB-75 = tested on: SNB-75
TK-10 = tested on: TK-10
U-251 = tested on: U-251
UACC-257 = tested on: UACC-257
RXF 393 = tested on: RXF 393
UACC-62 = tested on: UACC-62

SMILES	GI50 (ACHN)	GI50 (COLO 205)	GI50 (HCC 2998)	GI50 (HCT-15)	GI50 (K562)	GI50 (M14)	GI50 (NCI-H23)	GI50 (OVCAR-5)	GI50 (RPMI-8226)	GI50 (SF-539)	GI50 (SK-MEL-5)	GI50 (SNB-75)	GI50 (TK-10)	GI50 (U-251)	GI50 (UACC-257)	GI50 (RXF 393)	GI50 (UACC-62)
CCn1c2ccccc2c2ccc3c(c21)C(=O)C=CC3=O	16.5 µM (inactive)	9.55 µM (inactive)	20.9 µM (inactive)	10.4 µM	2.29 µM (inactive)	3.93 µM (inactive)	22.5 µM (inactive)	21.5 µM (inactive)	10.3 µM (inactive)	26.2 µM (inactive)	< 0.01 µM (active)	29.6 µM (inactive)	16.4 µM (inactive)	15.9 µM (inactive)	14.6 µM (inactive)		
COC(OC)c1cccnc1C	> 100 µM (inactive)	> 100 µM (inactive)		> 100 µM	> 100 µM (inactive)	> 100 µM (inactive)	> 100 µM (inactive)	> 100 µM (inactive)		> 100 µM (inactive)	> 100 µM (inactive)	> 100 µM (inactive)	> 100 µM (inactive)	> 100 µM (inactive)	> 100 µM (inactive)	> 100 µM (inactive)	> 100 µM (inactive)
CON(C)C(=O)CCCO	> 100 µM (inactive)	> 100 µM (inactive)		> 100 µM	> 100 µM (inactive)	> 100 µM (inactive)	> 100 µM (inactive)		> 100 µM (inactive)	> 100 µM (inactive)	> 100 µM (inactive)	> 100 µM (inactive)	> 100 µM (inactive)	> 100 µM (inactive)	> 100 µM (inactive)	> 100 µM (inactive)	> 100 µM (inactive)
O=[N+]([O-])c1cccc(C(O)/C(=N/O)c2nc3ccc(Cl)cc3nc2O)c1 (centres undefined)	> 100 µM (inactive)	> 100 µM (inactive)	> 100 µM (inactive)		> 100 µM (inactive)	> 100 µM (inactive)	> 100 µM (inactive)	> 100 µM (inactive)	> 100 µM (inactive)	> 100 µM (inactive)	> 100 µM (inactive)	> 100 µM (inactive)	> 100 µM (inactive)		> 100 µM (inactive)	> 100 µM (inactive)	> 100 µM (inactive)
CCOC(=O)C1(CC)CCCCC(=O)N1 (centres undefined)	> 100 µM (inactive)	> 100 µM (inactive)	> 100 µM (inactive)	> 100 µM	> 100 µM (inactive)	> 100 µM (inactive)	> 100 µM (inactive)						> 100 µM (inactive)	> 100 µM (inactive)		> 100 µM (inactive)	> 100 µM (inactive)
Clc1ccc(Nc2nc3ccccc3nc2-c2cccs2)cc1Cl	32.1 µM (inactive)	26.1 µM (inactive)	32.1 µM (inactive)	10.3 µM			37.8 µM (inactive)	> 100 µM (inactive)	45.2 µM (inactive)	45.3 µM (inactive)		84.9 µM (inactive)	42.1 µM (inactive)	> 10 µM (inactive)	34.4 µM (inactive)	22.6 µM (inactive)	38.5 µM (inactive)
CCN(CC)Cc1cc(Nc2ccnc3ccc4nn(C)nc4c23)ccc1O	9.25 µM (inactive)	5.02 µM (inactive)	13.3 µM (inactive)	16.7 µM	> 100 µM (inactive)	14.3 µM (inactive)	15.3 µM (inactive)	12.6 µM (inactive)	7.85 µM (inactive)	13.6 µM (inactive)	16.3 µM (inactive)	12.3 µM (inactive)	22.4 µM (inactive)	15.3 µM (inactive)	13.9 µM (inactive)	9.25 µM (inactive)	13.7 µM (inactive)
Cc1cc2c(ccc3c(C)cc(=O)oc32)o1	> 100 µM (inactive)	> 100 µM (inactive)	> 100 µM (inactive)	> 100 µM	> 100 µM (inactive)	> 100 µM (inactive)	> 100 µM (inactive)	> 100 µM (inactive)	> 100 µM (inactive)	> 100 µM (inactive)	> 100 µM (inactive)	35.6 µM (inactive)	> 100 µM (inactive)	> 100 µM (inactive)	> 100 µM (inactive)	78.3 µM (inactive)	> 100 µM (inactive)
